# System: HeMnDP melanocyte monoculture
# Assay: Melanin content assay in melanocyte monoculture (after Calcein-AM viability assay)
# Format: cell-based
# Details: 72 hours
# Protocol: All samples were analysed to determine the extent of their ability to bring about skin lightening by checking the cell viability and melanin content assay. Set Up of Cultures Involved the Following Steps: • ([…] per well (single wells/treatment) in 24-well Nunc plates on Day-0 were seeded to establish a melanocyte monoculture system. • (ii) The volume of media per well was limited to 1 ml of Melanocyte Growth Media (MGM) • (iii) 24 hours later, fresh media containing actives was added again. At this stage also, 1 ml of MGM was used. • (iv) Plates were incubated for 72 hours at 37° C. in a CO2 incubator. • (v) At the end, the plates were sent for Calcein assay, described hereinafter, followed by melanin content estimation. Calcein-AM Viability Assay • (i) The spent media was removed from each well of a 24-well plate and rinsed once with 400 μl of 1×PBS-Ca-Mg (see preparation below), including wells without cells (Control wells). • (ii) One μM Calcein-AM (working stock) in 1×PBS-Ca-Mg from 1 mM stock (e.g. 10 μl of 1 mM Calcein stock in 100% DMSO in 10 ml of 1×PBS-Ca-Mg) was prepared. About 400 μl of Calcein-AM working stock solution was added to each well, including the controls cells. • (iii) The plates were covered with aluminum foil and were incubated for 30 minutes in a CO2 incubator. • (iv) In the meantime, fluorescence was measured (excitation at 490 nm and emission at 520 nm) using TECAN® instrument after 30 minutes of dye incubation. • (v) After reading the plates, the buffer containing Calcein was removed and melanin content assay was then carried out. […] The % inhibition was then calculated for each case. Higher values of % inhibition indicate an active ingredient's potential to serve as a skin lightening agent. The tests of Example 2 were repeated with isonicotinamide instead of picolinamide.
smiles,measurement,setting,value
"NC(=O)c1ccncc1 [Ex-I, Isonicotinamide]",Inhibition in melanin synthesis,Isonicotinamide 122 μg,−16%
same,Inhibition in melanin synthesis,Isonicotinamide 1220 μg,10%
"NC(=O)c1ccccn1 [Ex-D, Picolinamide]",Inhibition in melanin synthesis,picolinamide 122 μg,1%
same,Inhibition in melanin synthesis,picolinamide 1220 μg,27%
"CCCCCCc1ccc(O)cc1O [Ex-B, 4-hexyl resorcinol]",Inhibition in melanin synthesis,"4-hexyl Resorcinol 0.192 μg, Example 2",3%
same,Inhibition in melanin synthesis,"4-hexyl Resorcinol 0.192 μg, Example 3",3%
same,Inhibition in melanin synthesis,"4-hexyl Resorcinol 1.92 μg, Example 2",31%
same,Inhibition in melanin synthesis,"4-hexyl Resorcinol 1.92 μg, Example 3",31%

# Source: US20190307664A1, “METHOD AND COSMETIC COMPOSITION FOR ENHANCED TRANSDERMAL DELIVERY OF ALKYL SUBSTITUTED RESORCINOL” (CONOPCO, INC., D/B/A UNILEVER, priority 2016, published 2019)
